Active and inactive are the calls of the source. The rule behind the calls is not given here.
How the values were obtained:
[1] = Cytotoxicity against MDCK cells assessed as reduction in cell viability by CCK8 assay; type: cell-based, Canis lupus familiaris; details: dog
Influenza A virus [2] = experiment: Antiviral activity against Influenza A virus (A/WSN/1933(H1N1)) infected in MDCK cells cocultured with human 293T-Gluc cells at 100 uM preincubated with compound for 2 hrs followed by virus infection measured after 24 hrs by luciferase reporter gene assay relative to control; type: functional
Influenza A virus [3] = experiment: Antiviral activity against Influenza A virus (A/WSN/1933(H1N1)) infected in MDCK cells cocultured with human 293T-Gluc cells at 20 uM preincubated with compound for 2 hrs followed by virus infection measured after 24 hrs by luciferase reporter gene assay relative to control; type: functional
Influenza A virus [4] = experiment: Antiviral activity against Influenza A virus (A/WSN/1933(H1N1)) infected in MDCK cells cocultured with human 293T-Gluc cells preincubated with compound for 2 hrs followed by virus infection measured after 24 hrs by luciferase reporter gene assay; type: functional, organism-based

Row | SMILES | CC50 [1] [µM] | inhibition at 100 µM (Influenza A virus [2]) [%] | inhibition at 20 µM (Influenza A virus [3]) [%] | IC50 (Influenza A virus [4]) [µM] | inhibition (Influenza A virus [2]) | inhibition (Influenza A virus [3])
1 | CCOC(=O)C[C@@H]1C(C(=O)OC)=CO[C@@H](C)[C@@H]1C=O | 90.8 | 96.8 | 55.8 | 18.5 |  | 
2 | COC(=O)C[C@@H]1C(C(=O)OC)=CO[C@@H](C)[C@@H]1C(OC)OC |  |  |  |  | inactive | inactive
3 | COC(=O)C1=CO[C@@H](O[C@@H]2O[C@H](CO)[C@@H](O)[C@H](O)[C@H]2O)/C(=C/C(=O)O)[C@@H]1CC(=O)OCCc1ccc(O)cc1 | > 100 | 81.7 | 60.4 | 12.5 |  | 
4 | COC(=O)C1=CO[C@@H](O[C@@H]2O[C@H](CO)[C@@H](O)[C@H](O)[C@H]2O)[C@@](O)(CC(=O)O)[C@@H]1CC(=O)O |  | 76.2 | 29.4 |  |  | 
5 | C/C=C1/[C@H](O[C@@H]2O[C@H](CO[C@@H]3O[C@H](CO)[C@@H](O)[C@H](O)[C@H]3O)[C@@H](O)[C@H](O)[C@H]2O)OC=C(C(=O)OC)[C@H]1CC(=O)OCCc1ccc(O)cc1 |  | 60.8 | 17.8 |  |  | 
6 | C/C=C1/[C@H]2OC=C(C(=O)OC)[C@H]1CC(=O)OC[C@@H](c1ccc(O)c(O)c1)OC[C@H]1O[C@@H](O2)[C@H](O)[C@@H](O)[C@@H]1O |  |  |  |  | inactive | inactive
7 | C[C@H]1OC(=O)CC2C(C(=O)O)=CO[C@@H](O[C@@H]3O[C@H](COC(=O)/C=C/c4ccccc4)[C@@H](O)[C@H](O)[C@H]3O)C21 (stereo partly specified) |  | 33.3 | 35.6 |  |  | 
8 | COC(=O)C1=CO[C@@H](O[C@@H]2O[C@H](CO)[C@@H](O)[C@H](O)[C@H]2O)/C(=C/C(=O)O)[C@@H]1CC(=O)OCCc1ccc(O)c(O)c1 | > 100 | 83.2 | 63.1 | 13.1 |  | 
9 | C/C=C1/[C@H]2OC=C(C(=O)OC)[C@H]1CC(=O)OC[C@H](c1ccc(O)c(O)c1)OC[C@H]1O[C@@H](O2)[C@H](O)[C@@H](O)[C@@H]1O |  |  |  |  | inactive | inactive
10 | C=C[C@H]1[C@H](O[C@@H]2O[C@H](COC(=O)/C=C/c3ccccc3)[C@@H](O)[C@H](O)[C@H]2O)OC=C(C(=O)O)[C@H]1CC(=O)OC |  |  |  |  | inactive | inactive
11 | NC(=O)c1ncn([C@@H]2O[C@H](CO)[C@@H](O)[C@H]2O)n1 [RIBAVIRIN] |  |  |  | 22.6 |  | 
12 | C=C[C@H]1[C@H](O[C@@H]2O[C@H](COC(=O)/C=C/c3ccccc3)[C@@H](O)[C@H](O)[C@H]2O)OC=C(C(=O)O)[C@H]1CC(=O)O | 80.5 | 73.9 | 60.8 | 16.5 |  | 
